Laboratory results from patent US20030087316A1, “Diagnostic markers of liver dysfunction” (priority 2001, published 2003).

What was measured:
plasma kallikrein = target: T1, plasma kallikrein (Homo sapiens, UniProt P03952); assay: Peptidase (amidolytic) activity of purified plasma kallikrein, chromogenic substrate, OD 405 nm; assay type: biochemical; details: Table 2; plasma kallikrein 20 nM, substrate AGLTR-pNA; 60 min at 4° C. with LBTI 1 mg/ml, SBTI I mg/ml, aprotinin 0.075 mg/ml, benzamidine 50 mM or Futhan 0.1 mg/ml; read-out: % Residual activity, Plasma Kallikrein
T1 construct: The light chain of kallikrein contains the enzymatic domain; purchased Calbiochem-Novabiochem Corp (La Jolla, Calif.)
T1 sequence (P03952 391-638 limits assumed): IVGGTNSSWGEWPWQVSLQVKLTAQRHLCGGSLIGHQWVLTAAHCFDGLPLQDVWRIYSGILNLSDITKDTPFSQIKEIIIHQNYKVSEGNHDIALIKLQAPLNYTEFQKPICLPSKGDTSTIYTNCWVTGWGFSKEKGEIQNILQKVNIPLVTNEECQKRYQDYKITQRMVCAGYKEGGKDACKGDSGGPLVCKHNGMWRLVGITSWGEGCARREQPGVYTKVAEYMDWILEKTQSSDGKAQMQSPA
T1 sequence (P03952 20-390 partner limits assumed): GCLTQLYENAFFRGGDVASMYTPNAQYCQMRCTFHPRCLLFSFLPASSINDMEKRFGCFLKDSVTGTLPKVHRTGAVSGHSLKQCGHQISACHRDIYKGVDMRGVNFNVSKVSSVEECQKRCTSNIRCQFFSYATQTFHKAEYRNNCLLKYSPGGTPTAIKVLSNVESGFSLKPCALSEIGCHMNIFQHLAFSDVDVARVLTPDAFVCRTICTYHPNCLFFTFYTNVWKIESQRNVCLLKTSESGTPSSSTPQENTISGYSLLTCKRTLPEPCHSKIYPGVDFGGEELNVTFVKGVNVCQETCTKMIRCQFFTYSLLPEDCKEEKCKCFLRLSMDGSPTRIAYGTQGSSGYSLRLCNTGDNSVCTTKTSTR
Method: (§1) The peptidase activity in plasma samples or of the purified enzymes were routinely determined at 37° C. in a 96-well plate. Each well contained 0.5 mM substrate in 100 μl of Tris-buffered saline (TBS)-EDTA buffer (50 mM Tris/150 mM NaCl/10 mM EDTA, pH 7.8) and the reaction was monitored using a microplate reader (Titertek Multiscan, Labsystems, Needham Heights, Mass.).
(§2) […] EDTA plasma samples from LTR were diluted 10 or 20-fold with TBS-EDTA. The chromogenic substrate AGLTR-pNA was used for all enzymes and LTR samples except C1s where the substrate S2288 was used. Based on the initial rate of increase in OD at 405 nm, the residual free enzyme level was calculated and expressed as a percentage of total activity without inhibitor added.
(§3) Ten-fold diluted normal EDTA plasma was added to each enzyme. […] LTR samples were 10 or 20-fold diluted with TBS-EDTA. The chromogenic substrate AGLTR-pNA was used for all enzymes and LTP samples except C1s where the substrate S2288 was used. Based on the initial rate of increase in OD at 405 nm, the residual free enzyme was calculated and expressed as a percentage of total activity determined without inhibitor added.

β-Factor XIIa (β-FXIIa) = target: T2, β-Factor XIIa (β-FXIIa) (Homo sapiens, UniProt P00748); assay: Peptidase (amidolytic) activity of purified β-FXIIa, chromogenic substrate, OD 405 nm; assay type: biochemical; details: Table 2; β-FXIIa 100 nM, substrate AGLTR-pNA; 60 min at 4° C. with LBTI 1 mg/ml, SBTI I mg/ml, aprotinin 0.075 mg/ml, benzamidine 50 mM or Futhan 0.1 mg/ml; read-out: % Residual activity, β-FXIIa
T2 construct: β-Factor XIIa (β-FXIIa) was kindly provided by Dr. Mary J. Heeb; gift of Dr. Mary J. Heeb, The Scripps Research Institute
T2 sequence (P00748 373-615 limits assumed, other chains not shown): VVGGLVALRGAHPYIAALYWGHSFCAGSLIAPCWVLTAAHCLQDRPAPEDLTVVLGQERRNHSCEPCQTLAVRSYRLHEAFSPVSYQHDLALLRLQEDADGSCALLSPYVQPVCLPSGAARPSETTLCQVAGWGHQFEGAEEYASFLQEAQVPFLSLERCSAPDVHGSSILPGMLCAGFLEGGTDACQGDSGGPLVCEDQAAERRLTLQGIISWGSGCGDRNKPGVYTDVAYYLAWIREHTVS
Method: as §1, §2, §3

thrombin = target: T3, thrombin (Homo sapiens, UniProt P00734); assay: Peptidase (amidolytic) activity of purified thrombin, chromogenic substrate, OD 405 nm; assay type: biochemical; details: Table 2; thrombin 100 nM, substrate AGLTR-pNA; 60 min at 4° C. with LBTI 1 mg/ml, SBTI I mg/ml, aprotinin 0.075 mg/ml, benzamidine 50 mM or Futhan 0.1 mg/ml; read-out: % Residual activity, Thrombin
T3 construct: purchased Calbiochem-Novabiochem Corp (La Jolla, Calif.)

trypsin = assay: Peptidase (amidolytic) activity of purified trypsin, chromogenic substrate, OD 405 nm; assay type: biochemical; details: Table 2; trypsin 16 nM, substrate AGLTR-pNA; 60 min at 4° C. with LBTI 1 mg/ml, SBTI I mg/ml, aprotinin 0.075 mg/ml, benzamidine 50 mM or Futhan 0.1 mg/ml
Method: as §1
(§4) The enzymes C1s (100 nM), plasm in (100 nM), thrombin (100 nM), plasma kallikrein (20 nM), β-FXIIa (100 nM), trypsin (16 nM) or LTR EDTA plasma samples were incubated for 60 min at 4° C. with TBS-EDTA buffer containing either LBTI (1 mg/ml), SBTI (I mg/ml), aprotinin (0.075 mg/ml), benzamidine (50 mM), or Futhan (0.1 mg/ml), before mixing with the substrate. EDTA plasma samples from LTR were diluted 10 or 20-fold with TBS-EDTA. The chromogenic substrate AGLTR-pNA was used for all enzymes and LTR samples except C1s where the substrate S2288 was used. Based on the initial rate of increase in OD at 405 nm, the residual free enzyme level was calculated and expressed as a percentage of total activity without inhibitor added.

plasmin = target: T4, plasmin (Homo sapiens, UniProt P00747); assay: Peptidase (amidolytic) activity of purified plasmin, chromogenic substrate, OD 405 nm; assay type: biochemical; details: Table 2; plasmin 100 nM, substrate AGLTR-pNA; 60 min at 4° C. with LBTI 1 mg/ml, SBTI I mg/ml, aprotinin 0.075 mg/ml, benzamidine 50 mM or Futhan 0.1 mg/ml; read-out: % Residual activity, Plasmin
T4 construct: purchased Calbiochem-Novabiochem Corp (La Jolla, Calif.)
T4 sequence (P00747 581-810 limits assumed, species assumed): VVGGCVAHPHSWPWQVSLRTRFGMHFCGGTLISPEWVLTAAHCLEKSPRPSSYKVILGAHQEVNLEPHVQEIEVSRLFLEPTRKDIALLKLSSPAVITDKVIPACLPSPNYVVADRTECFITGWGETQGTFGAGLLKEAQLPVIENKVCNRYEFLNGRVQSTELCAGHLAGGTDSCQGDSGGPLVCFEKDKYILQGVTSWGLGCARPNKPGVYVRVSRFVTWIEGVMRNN
T4 sequence (P00747 97-580 partner limits assumed, species assumed): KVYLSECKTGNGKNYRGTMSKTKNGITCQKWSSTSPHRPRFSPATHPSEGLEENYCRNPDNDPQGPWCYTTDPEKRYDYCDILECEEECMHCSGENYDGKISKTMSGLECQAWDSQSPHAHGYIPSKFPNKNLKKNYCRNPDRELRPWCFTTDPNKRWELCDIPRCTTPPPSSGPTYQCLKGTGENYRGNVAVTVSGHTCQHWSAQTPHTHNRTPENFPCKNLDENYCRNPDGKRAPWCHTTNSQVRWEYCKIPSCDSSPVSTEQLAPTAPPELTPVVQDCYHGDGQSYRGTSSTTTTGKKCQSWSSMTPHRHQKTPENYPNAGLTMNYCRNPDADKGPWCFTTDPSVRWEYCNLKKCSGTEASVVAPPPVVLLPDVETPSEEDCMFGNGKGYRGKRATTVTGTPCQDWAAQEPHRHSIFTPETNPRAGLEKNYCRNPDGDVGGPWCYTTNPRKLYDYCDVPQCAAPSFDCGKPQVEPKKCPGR
Method: as §1, §4
(§5) Ten-fold diluted normal EDTA plasma was added to each enzyme. The enzymes C1s (100 nM), plasmin (100 nM), thrombin (100 nM), plasma kallikrein (20 nM), β-FXIIa (100 nM), trypsin (16 nM) or LTR EDTA plasma samples were incubated for 60 min at 4° C. with TBS-EDTA buffer containing either C1INH (40 μg/ml), bdellin (50 μg/ml), hirudin (50 U/ml), PPACK 11(10 μM), or CTI (100 μg/ml), before adding the substrate. LTR samples were 10 or 20-fold diluted with TBS-EDTA. The chromogenic substrate AGLTR-pNA was used for all enzymes and LTP samples except C1s where the substrate S2288 was used. Based on the initial rate of increase in OD at 405 nm, the residual free enzyme was calculated and expressed as a percentage of total activity determined without inhibitor added.

[1] = tested on: all of the enzymes examined; assay: General serine proteinase inhibitors on selected proteinases (summary over the enzymes); assay type: biochemical; details: Table 2; benzamidine 50 mM, Futhan 0.1 mg/ml
Method: as §1, §4

[2] = tested on: proteinase(s) in EDTA plasma from LTR (kallikrein-like peptidase); assay: Peptidase activity in EDTA plasma from liver transplant recipients (LTR), chromogenic substrate, OD 405 nm; assay type: biochemical, human; details: Table 2, substrate AGLTR-pNA, 60 min at 4° C. with LBTI 1 mg/ml, SBTI I mg/ml, aprotinin 0.075 mg/ml, benzamidine 50 mM or Futhan 0.1 mg/ml
Method: Blood samples were drawn into 5 ml EDTA tubes (Venoject; Terumo Corp., Elkton, Md.). The plasma was collected immediately by centrifugation at 2,000×g for 15 min at 4° C. The plasma samples were either processed immediately for analysis or stored at −70° C. Frozen samples were thawed at 4° C. prior to analysis.
as §1, §4, §5

[3] = tested on: complement (three known pathways); details: defined levels of Futhan in combination with EDTA; cited from earlier work
C1s = target: T5, C1s (Homo sapiens, UniProt P09871); assay: Peptidase (amidolytic) activity of purified C1s, chromogenic substrate, 96-well plate, OD 405 nm; assay type: biochemical; details: Table 2; C1s 100 nM, substrate S2288; 60 min at 4° C. with LBTI 1 mg/ml, SBTI I mg/ml, aprotinin 0.075 mg/ml, benzamidine 50 mM or Futhan 0.1 mg/ml; % of total activity without inhibitor; read-out: % Residual activity, C1s
T5 construct: purchased Advanced Research Technologies (San Diego, Calif.)
T5 sequence (P09871 438-688 limits assumed): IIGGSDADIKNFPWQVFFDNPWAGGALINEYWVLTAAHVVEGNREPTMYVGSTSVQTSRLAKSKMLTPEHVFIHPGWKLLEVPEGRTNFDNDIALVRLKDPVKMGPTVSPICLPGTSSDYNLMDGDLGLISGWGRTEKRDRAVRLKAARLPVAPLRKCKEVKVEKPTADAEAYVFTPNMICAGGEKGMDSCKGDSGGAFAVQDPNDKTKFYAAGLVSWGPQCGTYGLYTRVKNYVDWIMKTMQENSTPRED
T5 sequence (P09871 16-437 partner limits assumed): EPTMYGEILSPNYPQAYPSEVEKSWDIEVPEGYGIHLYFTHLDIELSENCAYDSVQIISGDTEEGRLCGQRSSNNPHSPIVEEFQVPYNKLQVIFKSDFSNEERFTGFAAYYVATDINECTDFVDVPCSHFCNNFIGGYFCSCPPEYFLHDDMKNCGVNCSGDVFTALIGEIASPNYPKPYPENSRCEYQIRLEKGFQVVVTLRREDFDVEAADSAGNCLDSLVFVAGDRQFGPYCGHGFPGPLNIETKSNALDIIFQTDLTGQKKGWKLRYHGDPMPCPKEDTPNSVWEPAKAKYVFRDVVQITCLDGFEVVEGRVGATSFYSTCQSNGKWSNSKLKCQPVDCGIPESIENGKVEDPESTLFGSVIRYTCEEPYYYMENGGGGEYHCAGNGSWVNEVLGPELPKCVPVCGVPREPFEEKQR
Method: as §1, §4, §5

N=C(N)c1ccc2cc(OC(=O)c3ccc(N=C(N)N)cc3)ccc2c1 [Futhan, nafamostat mesilate]
remaining activity at 100 µg/mL (plasma kallikrein): 1.1% | remaining activity at 100 µg/mL (β-Factor XIIa (β-FXIIa)): 3.8% | remaining activity at 100 µg/mL (thrombin): 0.8% | % Residual activity, Trypsin (trypsin): −0.5% | remaining activity at 100 µg/mL (plasmin): -1.5% | Inhibition of all of the enzymes examined, in words [1]: very efficient inhibitors for all of the enzymes examined | % Residual activity, LTR 1 ([2]; LTR 1 EDTA plasma diluted 10 or 20-fold): −0.7% | % Residual activity, LTR 2 ([2]; LTR 2 EDTA plasma diluted 10 or 20-fold): 0.2% | % Residual activity, LTR 3 ([2]; LTR 3 EDTA plasma diluted 10 or 20-fold): −1.1% | Prevention of in vitro activation of complement in plasma samples, in words [3]: can prevent the in vitro activation of complement by any of the three known pathways | remaining activity at 100 µg/mL (C1s): 4.6%
